The values that follow come from PubChem BioAssay (NCI).

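These data come from cells grown in 96-well plates and exposed to compound for 48 hours at five concentrations. The concentration for 50% growth inhibition is given as GI50. Definition used: TGI = concentration required for complete inhibition of growth.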

The subject of the first test is HOP-92 NSCLC. The experiment in a line: NCI tumour cell line growth inhibition, 48 h.
In the case of `O=c1cc(CNc2cc(F)cc(F)c2)c2ccc(I)cc2[nH]1`, the GI50 was 1.42 µM and the TGI is over 100 µM.
Taken in the same sequence, the figures for `CCCN(Cc1ccc(F)cc1)c1ccc(CO)c(Cl)c1` were 2.66 µM and 14.2 µM.
Turning to `CCN1C(=O)N(CC)C2C1NN=c1s/c(=C3\C(=O)N(C(C)C)c4ccccc43)c(=O)n12` (configuration not stated), the GI50 was 0.342 µM and the TGI turned out to be 6.53 µM.
Taken in the same sequence, the figures for `NC(=O)[C@H]1CCN(c2ncnc(N)c2F)C[C@@H]1N1CCC[C@@H](Nc2cc(Cl)cc(C(F)(F)F)c2)C1=O` were 11.2 µM and 40.7 µM.
`CCN(CC)c1ccc(/C=C/c2cc(C)c3ccccc3n2)cc1`: the GI50 was 3.63 µM and the TGI worked out at 22.9 µM.
Taken in the same sequence, the figures for `Cc1ccc2[nH]c(C(=O)NN3C(=O)CSC34CCCCC4C)c(-c3ccccc3)c2c1` (configuration not stated) were 12.7 µM and 27.3 µM.
Taken in the same sequence, the figures for `CN(C)CCCNC(=O)c1cc(NC(=O)CCNS(=O)(=O)c2ccc3c(c2)C(=O)c2ccccc2C3=O)cn1C` were 88.9 µM and over 100 µM.
In turn, `C=C1C(=O)O[C@H]2C[C@@H](C)[C@@H]3CC(=O)OC[C@@]3(C)CC12` (some centres not stated) showed a TGI of 34.8 µM.
Take `CCOC(=O)c1c2c(n(CC(C)C)c1C)-c1nc[nH]c1C(=O)C2=O`: the GI50 was 3.82 µM and the TGI was 16.2 µM.
In turn, `CC(=O)OC1c2ccccc2CC2(OC(C)=O)c3ccccc3C12` (configuration not stated) displayed a TGI of over 100 µM.
On to `Nc1nc(/C=C\c2ccc([N+](=O)[O-])o2)nc(N2CCN(c3ccccc3)CC2)n1`, for which the GI50 is 6.86 µM and the TGI was 44.3 µM.
As to `COc1cc2cc(Oc3ccc(NC(=O)Nc4ccc(Cl)c(C(F)(F)F)c4)cc3)c(C)nc2cc1OCCN1CCCCC1`, the GI50 was 1.09 µM and the TGI stood at 2.41 µM.
Taken in the same sequence, the figures for `CC12CCC(=O)C(O1)C1C(=O)c3cc4ccccc4cc3C(=O)C12` (configuration not stated) were 13.9 µM and 29.7 µM.

The test system of another test is OVCAR-5 ovarian. The experiment in a line: NCI tumour cell line growth inhibition, 48 h.
For `O=c1cc(CNc2cc(F)cc(F)c2)c2ccc(I)cc2[nH]1`, the GI50 was 16.2 µM and the TGI was over 100 µM.
Taken in the same sequence, the figures for `CCCN(Cc1ccc(F)cc1)c1ccc(CO)c(Cl)c1` were 0.168 µM and 0.528 µM.
Taken in the same sequence, the figures for `CCN1C(=O)N(CC)C2C1NN=c1s/c(=C3\C(=O)N(C(C)C)c4ccccc43)c(=O)n12` (configuration not stated) were 0.639 µM and over 100 µM.
Taken in the same sequence, the figures for `NC(=O)[C@H]1CCN(c2ncnc(N)c2F)C[C@@H]1N1CCC[C@@H](Nc2cc(Cl)cc(C(F)(F)F)c2)C1=O` were 13.5 µM and 59.3 µM.
`CCN(CC)c1ccc(/C=C/c2cc(C)c3ccccc3n2)cc1`: the GI50 is 7.09 µM and the TGI stood at 75.3 µM.
Taken in the same sequence, the figures for `Cc1ccc2[nH]c(C(=O)NN3C(=O)CSC34CCCCC4C)c(-c3ccccc3)c2c1` (configuration not stated) were 19.7 µM and 36.1 µM.
`O=C(CCl)c1ccc([N+](=O)[O-])o1`: the GI50 is 2.48 µM and the TGI was 5.3 µM.
Taken in the same sequence, the figures for `CN(C)CCCNC(=O)c1cc(NC(=O)CCNS(=O)(=O)c2ccc3c(c2)C(=O)c2ccccc2C3=O)cn1C` were over 100 µM and over 100 µM.
For `Nc1ncnc2sc(=S)c3c(c12)CCC3`, the GI50 was 42 µM and the TGI was over 100 µM.
The molecule `CC(=O)OC1c2ccccc2CC2(OC(C)=O)c3ccccc3C12` (configuration not stated) showed a TGI of over 100 µM.
For `Nc1nc(/C=C\c2ccc([N+](=O)[O-])o2)nc(N2CCN(c3ccccc3)CC2)n1`, the GI50 was 31.5 µM and the TGI came to 62.5 µM.
Consider `COc1cc2cc(Oc3ccc(NC(=O)Nc4ccc(Cl)c(C(F)(F)F)c4)cc3)c(C)nc2cc1OCCN1CCCCC1`, for which the GI50 is 1.92 µM and the TGI was 3.38 µM.
Taken in the same sequence, the figures for `CC12CCC(=O)C(O1)C1C(=O)c3cc4ccccc4cc3C(=O)C12` (configuration not stated) were 29.3 µM and 69.6 µM.
`Cc1ccc(C(=O)Nc2ccc(S(=O)(=O)O)c3cc(S(=O)(=O)O)cc(S(=O)(=O)O)c23)cc1NC(=O)c1cccc(N)c1` gave a TGI of over 100 µM.
`N#CC(C#N)=Cc1ccc(-c2ccc(-c3nc4ccccc4s3)cc2)o1`: the GI50 is 11.9 µM and the TGI was 24.2 µM.
Turning to `COc1ccc(Cn2nc(-c3cc(OC)c(OC)c(OC)c3)c3c2CCc2cnoc2-3)cc1OC`, the GI50 was 26.6 µM and the TGI is over 100 µM.
Taken in the same sequence, the figures for `O=C1C(Cl)=C(N/N=c2/[nH][nH]/c(=N/NC3=C(Cl)C(=O)c4ccccc4C3=O)c3ccccc23)C(=O)c2ccccc21` were 18.7 µM and 39.1 µM.

The test system of a further test is SF-268 CNS. Put plainly: NCI tumour cell line growth inhibition, 48 h.
`O=c1cc(CNc2cc(F)cc(F)c2)c2ccc(I)cc2[nH]1` showed a TGI of over 100 µM.
Take `CCCN(Cc1ccc(F)cc1)c1ccc(CO)c(Cl)c1`: the GI50 was 16.1 µM and the TGI came out at 32.1 µM.
Regarding `CCN1C(=O)N(CC)C2C1NN=c1s/c(=C3\C(=O)N(C(C)C)c4ccccc43)c(=O)n12` (configuration not stated), the GI50 is 0.722 µM and the TGI is over 70.3 µM.
Taken in the same sequence, the figures for `NC(=O)[C@H]1CCN(c2ncnc(N)c2F)C[C@@H]1N1CCC[C@@H](Nc2cc(Cl)cc(C(F)(F)F)c2)C1=O` were 23.8 µM and over 100 µM.
Taken in the same sequence, the figures for `CCN(CC)c1ccc(/C=C/c2cc(C)c3ccccc3n2)cc1` were 5.46 µM and 74.4 µM.
Taken in the same sequence, the figures for `Cc1ccc2[nH]c(C(=O)NN3C(=O)CSC34CCCCC4C)c(-c3ccccc3)c2c1` (configuration not stated) were 17.2 µM and 37.4 µM.
For `O=C(CCl)c1ccc([N+](=O)[O-])o1`, the GI50 was 2.54 µM and the TGI was determined as 6.8 µM.
Taken in the same sequence, the figures for `CN(C)CCCNC(=O)c1cc(NC(=O)CCNS(=O)(=O)c2ccc3c(c2)C(=O)c2ccccc2C3=O)cn1C` were over 100 µM and over 100 µM.
`C=C1C(=O)O[C@H]2C[C@@H](C)[C@@H]3CC(=O)OC[C@@]3(C)CC12` (some centres not stated) gave a TGI of over 100 µM.
Regarding `CCOC(=O)c1c2c(n(CC(C)C)c1C)-c1nc[nH]c1C(=O)C2=O`, the GI50 is 15.2 µM and the TGI came out at 28.5 µM.
`Nc1ncnc2sc(=S)c3c(c12)CCC3`: the GI50 was 26.9 µM and the TGI came to 75.6 µM.
On to `CC(=O)OC1c2ccccc2CC2(OC(C)=O)c3ccccc3C12` (configuration not stated), for which the TGI is over 100 µM.
Turning to `Nc1nc(/C=C\c2ccc([N+](=O)[O-])o2)nc(N2CCN(c3ccccc3)CC2)n1`, the GI50 was 11.7 µM and the TGI was over 100 µM.
Taken in the same sequence, the figures for `CC12CCC(=O)C(O1)C1C(=O)c3cc4ccccc4cc3C(=O)C12` (configuration not stated) were 16.1 µM and 53 µM.
Taken in the same sequence, the figures for `CN(C)c1ccc2nc3ccc(=[N+](C)C)cc-3oc2c1` were 1.59 µM and 4.64 µM.
Molecule `Cc1ccc(C(=O)Nc2ccc(S(=O)(=O)O)c3cc(S(=O)(=O)O)cc(S(=O)(=O)O)c23)cc1NC(=O)c1cccc(N)c1` displayed a TGI of over 100 µM.
On to `N#CC(C#N)=Cc1ccc(-c2ccc(-c3nc4ccccc4s3)cc2)o1`, for which the GI50 was 27.6 µM and the TGI is over 100 µM.
As to `COc1ccc(Cn2nc(-c3cc(OC)c(OC)c(OC)c3)c3c2CCc2cnoc2-3)cc1OC`, the GI50 is 5.41 µM and the TGI was over 100 µM.
Taken in the same sequence, the figures for `O=C1C(Cl)=C(N/N=c2/[nH][nH]/c(=N/NC3=C(Cl)C(=O)c4ccccc4C3=O)c3ccccc23)C(=O)c2ccccc21` were 12.2 µM and 29.9 µM.

Another test relates to HT29 colon. The experiment in a line: NCI tumour cell line growth inhibition, 48 h.
`O=c1cc(CNc2cc(F)cc(F)c2)c2ccc(I)cc2[nH]1`: the GI50 is 0.361 µM and the TGI is over 100 µM.
Taken in the same sequence, the figures for `CCCN(Cc1ccc(F)cc1)c1ccc(CO)c(Cl)c1` were 4.78 µM and 16.4 µM.
As for `CCN1C(=O)N(CC)C2C1NN=c1s/c(=C3\C(=O)N(C(C)C)c4ccccc43)c(=O)n12` (configuration not stated), the GI50 is 0.35 µM and the TGI is over 100 µM.
Taken in the same sequence, the figures for `NC(=O)[C@H]1CCN(c2ncnc(N)c2F)C[C@@H]1N1CCC[C@@H](Nc2cc(Cl)cc(C(F)(F)F)c2)C1=O` were 5.29 µM and 55.1 µM.
With `CCN(CC)c1ccc(/C=C/c2cc(C)c3ccccc3n2)cc1`, the GI50 is 2.41 µM and the TGI is 7.39 µM.
Taken in the same sequence, the figures for `Cc1ccc2[nH]c(C(=O)NN3C(=O)CSC34CCCCC4C)c(-c3ccccc3)c2c1` (configuration not stated) were 14.4 µM and 36.9 µM.
Taken in the same sequence, the figures for `O=C(CCl)c1ccc([N+](=O)[O-])o1` were 2.76 µM and 8.99 µM.
Taken in the same sequence, the figures for `CN(C)CCCNC(=O)c1cc(NC(=O)CCNS(=O)(=O)c2ccc3c(c2)C(=O)c2ccccc2C3=O)cn1C` were over 100 µM and over 100 µM.
Molecule `C=C1C(=O)O[C@H]2C[C@@H](C)[C@@H]3CC(=O)OC[C@@]3(C)CC12` (some centres not stated) had a TGI of 50.1 µM.
Take `CCOC(=O)c1c2c(n(CC(C)C)c1C)-c1nc[nH]c1C(=O)C2=O`: the GI50 was 20.4 µM and the TGI worked out at 46.5 µM.
Taken in the same sequence, the figures for `Nc1ncnc2sc(=S)c3c(c12)CCC3` were 29.8 µM and 62.8 µM.
`CC(=O)OC1c2ccccc2CC2(OC(C)=O)c3ccccc3C12` (configuration not stated) gave a TGI of over 100 µM.
Turning to `Nc1nc(/C=C\c2ccc([N+](=O)[O-])o2)nc(N2CCN(c3ccccc3)CC2)n1`, the GI50 is 13.7 µM and the TGI stood at 55.9 µM.
Taken in the same sequence, the figures for `CC12CCC(=O)C(O1)C1C(=O)c3cc4ccccc4cc3C(=O)C12` (configuration not stated) were 21 µM and 51.1 µM.
The molecule `Cc1ccc2c(c1)C1(C)OC(CC(N)C1O)O2` (configuration not stated) displayed a TGI of over 100 µM.
Consider `CN(C)c1ccc2nc3ccc(=[N+](C)C)cc-3oc2c1`, for which the GI50 is 3.38 µM and the TGI turned out to be 29.3 µM.
On to `Cc1ccc(C(=O)Nc2ccc(S(=O)(=O)O)c3cc(S(=O)(=O)O)cc(S(=O)(=O)O)c23)cc1NC(=O)c1cccc(N)c1`, for which the TGI is over 100 µM.
As for `N#CC(C#N)=Cc1ccc(-c2ccc(-c3nc4ccccc4s3)cc2)o1`, the GI50 is 46 µM and the TGI is over 100 µM.
As to `COc1ccc(Cn2nc(-c3cc(OC)c(OC)c(OC)c3)c3c2CCc2cnoc2-3)cc1OC`, the GI50 is 3.8 µM and the TGI was over 100 µM.
Taken in the same sequence, the figures for `O=C1C(Cl)=C(N/N=c2/[nH][nH]/c(=N/NC3=C(Cl)C(=O)c4ccccc4C3=O)c3ccccc23)C(=O)c2ccccc21` were 24.9 µM and 53.6 µM.

For another test, the system named is NCI-H23 lung. Put plainly: NCI tumour cell line growth inhibition, 48 h.
`O=c1cc(CNc2cc(F)cc(F)c2)c2ccc(I)cc2[nH]1`: the GI50 is 6.36 µM and the TGI is over 100 µM.
Taken in the same sequence, the figures for `CCCN(Cc1ccc(F)cc1)c1ccc(CO)c(Cl)c1` were 4.24 µM and 20.2 µM.
Taken in the same sequence, the figures for `CCN1C(=O)N(CC)C2C1NN=c1s/c(=C3\C(=O)N(C(C)C)c4ccccc43)c(=O)n12` (configuration not stated) were 0.421 µM and 30.5 µM.
